Assay results as given in patent publication US8859819B2, “Sulphurated derivatives of resorcinol, preparation of same and cosmetic uses thereof” (Pierre Fabre Dermo-Cosmetique, priority 2009, dated 2014).
≈ marks a conversion by molar mass, not a printed value. Read-outs that look alike come from different tables or passages of the source.

Legend:
[1] = system: B16-F10 cells; assay: Melanin assay test in B16-F10 cells; type: cell-based, murine; conditions: Mus musculus, read-out: B16 activity results -% at X μM
Experimental: B) Melanin Assay Test in B16-F10 Cells:
This involves a test of measuring the synthesis of melanin by colorimetric assay on a murine melanoma cell line: the B16-F10 line. This test makes it possible to evaluate the depigmenting power of active ingredients.
The B16-F10 cells are cultured in 96-well plates in DMEM medium supplemented with FCS (foetal calf serum), and incubated for 24 hours at 37° C., 5% CO2. The cells are then stimulated with 0.1 μM α-MSH (to stimulate the synthesis of melanin, the stimulation observed is around 150%) and treated for 72 hours with the active ingredients to be tested. Each concentration of active ingredient is tested at least in triplicate. The total melanin followed by the intracellular melanin dissolved in the lysis buffer are then assayed by absorbance reading at 405 nm. The total proteins are assayed in the lysate and the results are expressed in mg melanin/mg proteins. The percentage of activity is calculated as follows: […]
A negative value indicates an inhibition, whereas a positive value indicates an induction of the synthesis of melanin.
• B16-F10 cell line between P10 and P20 (murine melanocytes) (ATCC, CRL-6475)
Reagents: • DMEM without phenol red (GibcoBRL, 31053-028), 200 mM Glutamax-I Supplement (GibcoBRL, 35050-038), D-PBS (GibcoBRL, 14190-094), Foetal calf serum (Invitrogen, 10270-098), Trypsine-EDTA (GibcoBRL, 25300-054), NaOH (Sigma, S8045-500G), DMSO (Sigma, 471267-1L), Nle, Phe—Melanocyte Stimulating Hormone (Sigma, M-8764), Melanin (Sigma, M-0418), BCA-Copper (Sigma, B9643 and C2284), BSA (Sigma, P0914) C) Test for the Study of the Antioxidant Capacity by Chemiluminescence (Photochem Analytik Jena) Principle: […]

[2] = system: P. acnes IP53.117 ATCC6919; assay: Minimal inhibitory concentration (MIC), microdilution; type: cell-based, Propionibacterium acnes; conditions: for MIC: Cutibacterium acnes, P. acnes IP53.117 ATCC6919
Experimental: (§1) E) Determination of the Minimal Inhibitory Concentration (MIC): This test is used to determine the antibacterial activity of a compound. Tests are carried out with 4 bacterial strains using the principle of microdilution. The MIC are determined by micromethod in liquid medium. The successive dilutions according to the products tested in the culture broth (Trypcase soy) are carried out on 96 well microplates in a final volume of 0.1 ml. The wells are seeded with 0.01 ml of bacterial suspensions titrated at around 10^7 UFC/ml. The microplates are incubated under optimal growth conditions and the MIC is read visually.

[3] = Antioxidant capacity by chemiluminescence (Photochem Analytik Jena); conditions: for μg of sample for 1 μg of Trolox: Trolox equivalent, lower = stronger antioxidant
Experimental: This test is used to determine the antioxidant capacity of the molecules. It is a method that generates free radicals by a photochemical signal. The intensity of the oxidation is 1000 times greater than that obtained under normal conditions.
The detection is carried out by chemiluminescence. It enables the evaluation of hydrosoluble and liposoluble anti-oxidant molecules or extracts.
The results are expressed respectively in equivalent quantity of vitamin C or Trolox (6-hydroxy-2,5,7,8-tetramethylchroman-2-carboxylic acid). The sensitivity is of the order of a nanomole.
The antioxidant activity studied in this test represents the capacity to trap specifically superoxide anions by chemiluminescence.
The quantified results are expressed in Trolox equivalent (standard), i.e. in “μg of product for 1 μg of Trolox”. This signifies that a quantity×of sample is needed to obtain an activity equivalent to the activity detected for 1 μg of standard. It is an anti-oxidant power relative to a reference, which makes it possible to disregard the concentration tested.
The superoxide radical: 02^0− is generated by a photochemical reaction: L+hv (UV)+O2→L*O2→L^0++O2^0−
A part of the superoxide anions is quenched by the anti-oxidants. The remaining free radicals are quantified by chemiluminescence. L^0++O2^0−→N2+AP*^2−→AP^2−+hv (luminescence)

[4] = target: T1, mushroom tyrosinase (Agaricus bisporus, UniProt C7FF04); assay: Tyrosinase inhibition test (in vitro acellular depigmenting activity); type: biochemical; conditions: for Tyrosinase depigmenting activity result: class symbol, assay from 250 to 150 μM, overall tyrosinase activity (MPMOg), L-tyrosine substrate
T1 construct: purchased Sigma T-3824
Excerpt: A) Determination of the Depigmenting Activity in an in vitro Acellular Test: Tyrosinase Inhibition Test)
This test is used to evaluate the depigmenting activity of the molecules tested. Tyrosinase is a limiting enzyme in melanogenesis.
It belongs to the family of oxydoreductases. It has in particular the function: monophenol monooxygenase (MPMO) and polyphenol oxidase (PPO).
It is synthesised at the level of the melanocytes. It is activated during its migration towards melanosome […]. It transforms tyrosine into DOPA then dopaquinone, which leads in fine to a polymerisation, i.e. a production of pigments (see diagram below).
The substrate: L-tyrosine, is transformed into L-DOPA by the monophenol mono oxygenase function which is transformed by the polyphenol oxidase function from tyrosinase into dopaquinone. The latter is going to self-oxidise into dopachrome which is measured by spectrophotometry at 490 nm.
More precisely, it is the overall tyrosinase activity (MPMOg) which is measured since it is the dopachrome in fine that is assayed. Thus the products tested on MPMOg (=measurement of the activity on PPO and MPMO) can cumulate the inhibition of the 2 functions, • inhibiting uniquely the MPMO function stricto sensus (transformation of tyrosine into DOPA) as a complement to the PPO test, • could inhibit PPO uniquely. General Experimental Conditions:

[5] = Protection of linoleic acid following a UV stress (Fenton conditions, MDA-TBA assay); set-up: % Protection Linoleic acid under UV/Fenton: concentration or dose not given beside the values; conditions: UV + H2O2 + iron II
Excerpt: D) Test of Protection of Linoleic Acid Following a UV Stress. Target: Protection of Linoleic Acid Under Fenton Conditions, UV Irradiation Linoleic acid belongs to the family of polyunsaturated fatty acids (PUFA) (AGPI). Sensitive to oxidation, linoleic acid is a favoured target for oxygenated free radicals (OFR) in biological media. When biological membranes are exposed to an oxidative stress, the components the most affected are the phospholipids constituted of PUFA and cholesterol. Their degradation leads to lipidic peroxidation and generally to destructuring. Lipidic peroxidation is a self-catalysing process which generally involves OFR. Lipidic peroxidation is in part responsible for skin ageing. The method employed to evaluate lipid peroxidation is based on the coupling of thiobarbituric acid (TBA) and secondary degradation products leading to coloured compounds detectable by spectrofluorometry. The essential secondary compound of final degradation is malondialdehyde, MDA. MDA is a carcinogenic and mutagenic aldehyde, it acts on proteins and DNA. The sample to be tested is placed in contact with linoleic acid in a weight/weight ratio. The sample undergoes an MED (Minimal Erythemal Dose) irradiation under Fenton conditions, namely in the presence of H202 and iron II in a solar simulator. Following irradiation, the reaction mixture is taken up in methanol and derivatised at 90° C. with TBA. Chromogene, the MDA-TBA complex, representative of the equimolar production of MDA is assayed by fluorimetry (excitation at 525 nm, emission at 549 nm). The results are expressed in fluorescence units, as a function of a MDA-TBA control range then expressed as concentration of the MDA-TBA complex. Then, the percentage of the starting MDA/linoleic acid (LA) ratio is determined. Then the percentage of protection of linoleic acid is determined. The product assay is expressed as weight/weight ratio, in other words in weight percentage with respect to the total quantity of linoleic acid. The maximal MDA level is determined by the condition UV+H202+iron II (F). The percentage of protection of linoleic acid represents: the % ratio of MDA under maximal stress conditions untreated over the % of MDA under stress conditions treated by the product.

[6] = system: Staphylococcus aureus IP4.83 ATCC6538; assay: Minimal inhibitory concentration (MIC), microdilution; type: cell-based
Experimental: as §1

[7] = system: Staphylococcus epidermidis IP6821; assay: as above; type: cell-based
Experimental: as §1

[8] = system: Escherichia coli IP53126 ATCC8739; assay: as above; type: cell-based
Experimental: as §1

[9] = target: T1, mushroom tyrosinase; assay: Tyrosinase inhibition test (in vitro acellular depigmenting activity); type: biochemical; conditions: polyphenol oxidase (PPO) function; reference molecules for the test
[10] = B16-F10, 50 μM, α-MSH stimulated, 72 hours, negative value = inhibition of melanin synthesis

T1 sequence (C7FF04 1-392 limits assumed): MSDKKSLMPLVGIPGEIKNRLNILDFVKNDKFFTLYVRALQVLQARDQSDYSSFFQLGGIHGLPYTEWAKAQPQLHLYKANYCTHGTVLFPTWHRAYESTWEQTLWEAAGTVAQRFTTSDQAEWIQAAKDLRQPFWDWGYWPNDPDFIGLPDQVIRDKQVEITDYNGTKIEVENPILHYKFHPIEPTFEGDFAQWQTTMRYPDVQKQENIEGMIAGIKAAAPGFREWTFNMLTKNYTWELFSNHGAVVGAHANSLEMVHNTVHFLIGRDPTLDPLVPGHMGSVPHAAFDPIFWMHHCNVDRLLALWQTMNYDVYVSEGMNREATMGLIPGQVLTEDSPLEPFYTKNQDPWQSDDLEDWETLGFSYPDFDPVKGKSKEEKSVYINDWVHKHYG

| Compound | MIC [2] | μg of sample for 1 μg of Trolox [3] | Tyrosinase depigmenting activity result [4] | % Protection Linoleic acid under UV/Fenton [5] | MIC [6] | MIC [7] | also measured |
| --- | --- | --- | --- | --- | --- | --- | --- |
| CCCCOc1cc(O)ccc1Sc1ccc(O)cc1O [Example 5, 4-(2-butoxy-4-hydroxyphenylthio)benzene-1,3-diol] | 3 µg/mL (≈ 9.79 µM) | 2.8 μg of sample for 1 μg of Trolox | + + + | 89% | 6 µg/mL (≈ 19.6 µM) | 3 µg/mL (≈ 9.79 µM) | inhibition at 20 µM ([1]; B16-F10, 72 h): 27% |
| CCCCCCCCOc1cc(O)ccc1Sc1ccc(O)cc1O [Example 7, 4-(4-hydroxy-2-(octyloxy)phenylthio)benzene-1,3-diol] | 0.09 µg/mL (≈ 0.248 µM) | 3.4 μg of sample for 1 μg of Trolox | + + + | 92% | 0.78 µg/mL (≈ 2.15 µM) | 0.39 µg/mL (≈ 1.08 µM) | inhibition at 10 µM ([1]; B16-F10, 72 h): 50%; antibacterial activity against Propionibacterium acnes (in words) [2]: strong antibacterial activity; MIC [8]: 390 µg/mL (≈ 1080 µM) |
| CCCCCCCCCCOc1cc(O)ccc1Sc1ccc(O)cc1O [Example 12, 4-(2-(decyloxy)-4-hydroxyphenylthio)benzene-1,3-diol] | 0.09 µg/mL (≈ 0.23 µM) | 3.4 μg of sample for 1 μg of Trolox |  | 96% | 0.78 µg/mL (≈ 2 µM) | 0.39 µg/mL (≈ 0.999 µM) | antibacterial activity against Propionibacterium acnes (in words) [2]: strong antibacterial activity; MIC [8]: 780 µg/mL (≈ 2000 µM) |
| CCCCCCCCCCCCCCCCOc1cc(O)ccc1Sc1ccc(O)cc1O [Example 13, 4-(2-(hexadecyloxy)-4-hydroxyphenylthio)benzene-1,3-diol] | 90 µg/mL (≈ 190 µM) | 5.7 μg of sample for 1 μg of Trolox |  | 95% | 190 µg/mL (≈ 400 µM) | 156 µg/mL (≈ 329 µM) |  |
| CC(C)CC(=O)Oc1cc(O)ccc1Sc1ccc(O)cc1O [Example 19, 2-(2,4-dihydroxyphenylthio)-5-hydroxyphenyl 3-methylbutanoate] |  | 2.8 μg of sample for 1 μg of Trolox | + + + | 88% |  |  | inhibition at 50 µM [1, 10]: 20% |
| CC(C)CC(=O)Oc1ccc(Sc2ccc(O)cc2O)c(O)c1 [Example 20, 4-(2,4-dihydroxyphenylthio)-3-hydroxyphenyl 3-methylbutanoate] |  | 25.6 μg of sample for 1 μg of Trolox | + + + | 91% |  |  | inhibition at 50 µM [1, 10]: 24% |
| CCCCCCCCNC(=O)Oc1cc(O)ccc1Sc1ccc(O)cc1O [Example 24, 2-(2,4-dihydroxyphenylthio)-5-hydroxyphenyl octylcarbamate] |  | 3.8 μg of sample for 1 μg of Trolox | + + + | 97% |  |  | inhibition at 50 µM ([1]; B16-F10, 72 h): 26% |
| [O-][S+](c1ccc(O)cc1O)c1ccc(O)cc1O [Example 25, 4,4′sulphinyldibenzene-1,3-diol] |  | 73 μg of sample for 1 μg of Trolox | + + + | 79% |  |  | inhibition at 73 µM ([1]; B16-F10, 73 μM, α-MSH stimulated, 72 hours, negative value = inhibition): 50%; IC50 [4]: 12 µM |
| O=C1O[C@H]([C@@H](O)CO)C(O)=C1O [Vitamin C, reference compound] |  |  |  |  |  |  | Activity (antioxidant, interpretation scale) ([3]; reference products of the interpretation scale): Very good (0.1 to 3.0); IC50 [9]: 20 to 40 µM |
